Experimental data published in patent publication US20250388605A1, “HETEROBIFUNCTIONAL COMPOUNDS AND METHODS OF TREATING DISEASE” (Halda Therapeutics OpCo, Inc., priority 2022, published 2025).

Legend:
[1] = system: T-Rex 293 cell line SC3 cells having increased expression of androgen receptor protein due to exposure to doxycycline; test: Cellular growth inhibition, T-Rex 293 SC3 cells with doxycycline (increased androgen receptor expression), CellTiter-Glo; format: cell-based; settings: T-Rex 293 SC3 cells with 10 ng/mL doxycycline (increased androgen receptor expression), 72 hours, CellTiter-Glo 2.0
In short: (§1)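 Growth inhibition is measured in an inducible AR-expressing T-Rex 293 clone, SC3, cultured with or without 10 ng/mL doxycycline in hormone-depleted medium. Test compounds are applied for 72 hours. GI50 values derive from CellTiter-Glo 2.0 signal fitted by four-parameter regression.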

[2] = system: T47D cells; test: Cellular Growth Inhibition Assay for T47D Cells (CellTiter-Glo); format: cell-based, human; settings: 72 hours
In short: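 GI50 values derive from four-parameter regression of CellTiter-Glo 2.0 luminescence, using zero luminescence as baseline. Human breast cancer T47D cells (3000/well; DMEM, 10% FBS, 0.2 units/mL insulin) were exposed for 72 h to compound dilutions at 0.5% DMSO, with dosing starting 24 h after seeding.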

[3] = system: VCaP cells; test: Cellular growth inhibition assay for VCaP cells, CellTiter-Glo; format: cell-based, human; settings: 72 hours
In short: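 GI50 values come from four-parameter curve fits of luminescence data normalized to a zero baseline. Compound, in medium with 0.5% DMSO, was added one day after plating and left for 72 h before CellTiter-Glo 2.0 addition.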

[4] = system: T-Rex 293 cell line SC3 cells lacking increased expression of androgen receptor protein; test: Cellular growth inhibition, T-Rex 293 SC3 cells without doxycycline (no increased androgen receptor expression), CellTiter-Glo; format: cell-based; settings: T-Rex 293 SC3 cells not exposed to doxycycline (no increased androgen receptor expression), 72 hours
In short: as §1

Structure (SMILES) | GI50 [2] | GI50 [3] | GI50 ([2]; Homo sapiens) | GI50 ([3]; Homo sapiens) | GI50 [1] | GI50 [4]
CCS(=O)(=O)c1ccc(OC(CCCCOC2CCN(c3ncc(C(=O)N[C@H]4C(C)(C)[C@H](Oc5ccc(C#N)c(Cl)c5)C4(C)C)cn3)CC2)C2CC2)c(-c2cn(C)c(=O)c3[nH]ccc23)c1 (some centres unmarked) [Compound I-234] | < 500 nM | < 500 nM |  |  | < 500 nM | < 500 nM
CCS(=O)(=O)c1ccc(OC(CCCCCN2CCN(c3ncc(C(=O)N[C@H]4C(C)(C)[C@H](Oc5ccc(C#N)c(Cl)c5)C4(C)C)cn3)CC2)C2CC2)c(-c2cn(C)c(=O)c3[nH]ccc23)c1 (some centres unmarked) [Compound I-235] | < 500 nM | < 500 nM |  |  | < 500 nM | < 500 nM
CCS(=O)(=O)c1ccc(OC(CCCOC2CCN(c3ncc(C(=O)N[C@H]4C(C)(C)[C@H](Oc5ccc(C#N)c(Cl)c5)C4(C)C)cn3)CC2)C2CC2)c(-c2cn(C)c(=O)c3[nH]ccc23)c1 (some centres unmarked) [Compound I-236] | < 500 nM | < 500 nM |  |  | < 500 nM | < 500 nM
Cn1cc(-c2cc(C(C)(C)O)ccc2OCC(CCCN2CCN(c3ncc(C(=O)N[C@H]4C(C)(C)[C@H](Oc5ccc(C#N)c(Cl)c5)C4(C)C)cn3)CC2)C2CC2)c2cc[nH]c2c1=O (some centres unmarked) [Compound I-237] |  |  | 500 to 1500 nM | 500 to 1500 nM | < 500 nM | 500 to 1500 nM
CCS(=O)(=O)c1ccc(OCC(CCOC2CCN(c3ncc(C(=O)N[C@H]4C(C)(C)[C@H](Oc5ccc(C#N)c(Cl)c5)C4(C)C)cn3)CC2)C2CC2)c(-c2cn(C)c(=O)c3[nH]ccc23)c1 (some centres unmarked) [Compound I-242] | < 500 nM | < 500 nM |  |  | < 500 nM | < 500 nM
Cn1cc(-c2cc(C(C)(C)O)ccc2OC(CCCCCN2CCN(c3ncc(C(=O)NC4C(C)(C)C(Oc5ccc(C#N)c(Cl)c5)C4(C)C)cn3)CC2)C2CC2)c2cc[nH]c2c1=O (centres unmarked) [Compound I-243, N-[3-(3-chloro-4-cyano-phenoxy)-2,2,4,4-tetramethyl-cyclobutyl]-2-[4-[6-cyclopropyl-6-[4-(1-hydroxy-1-methyl-ethyl)-2-(6-methyl-7-oxo-1H-pyrrolo[2,3-c]pyridin-4-yl)phenoxy]hexyl]piperazin-1-yl]pyrimidine-5-carboxamide] |  |  | 500 to 1500 nM | < 500 nM | < 500 nM | 500 to 1500 nM
Cn1cc(-c2cc(S(C)(=O)=O)ccc2Oc2cccc(CCCC3CCN(c4ncc(C(=O)NC5C(C)(C)C(Oc6ccc(C#N)c(Cl)c6)C5(C)C)cn4)CC3)c2)c2cc[nH]c2c1=O (centres unmarked) [Compound I-249, N-[3-(3-chloro-4-cyano-phenoxy)-2,2,4,4-tetramethyl-cyclobutyl]-2-[4-[3-[3-[2-(6-methyl-7-oxo-1H-pyrrolo[2,3-c]pyridin-4-yl)-4-methyl-sulfonyl-phenoxy]phenyl]propyl]-1-piperidyl]pyrimidine-5-carboxamide] |  |  | 500 to 1500 nM | 500 to 1500 nM | < 500 nM | > 3000 nM
Cn1cc(-c2cc(C(C)(C)O)ccc2OC(CCCCOC2CCN(c3ncc(C(=O)N[C@H]4C(C)(C)[C@H](Oc5ccc(C#N)c(Cl)c5)C4(C)C)cn3)CC2)C2CC2)c2cc[nH]c2c1=O (some centres unmarked) [Compound I-251] | 500 to 1500 nM | 500 to 1500 nM |  |  | < 500 nM | 500 to 1500 nM
Cn1cc(-c2cc(C(C)(C)O)ccc2Oc2cccc(N3CC(CN4C5CCC4CC(c4ncc(C(=O)N[C@H]6C(C)(C)[C@H](Oc7ccc(C#N)c(Cl)c7)C6(C)C)cn4)C5)C3)c2F)c2cc[nH]c2c1=O (some centres unmarked) [Compound I-258] |  |  | < 500 nM | < 500 nM | < 500 nM | 500 to 1500 nM
CCS(=O)(=O)c1ccc(Oc2ccc(CN3CC4(C3)CN(c3ncc(C(=O)N[C@H]5C(C)(C)[C@H](Oc6ccc(C#N)c(Cl)c6)C5(C)C)cn3)CCO4)cc2)c(-c2cn(C)c(=O)c3[nH]ccc23)c1 [Compound I-261] | < 500 nM | < 500 nM |  |  | < 500 nM | < 500 nM
CCS(=O)(=O)c1ccc(Oc2ccc(CCN3CC4(C3)CN(c3ncc(C(=O)N[C@H]5C(C)(C)[C@H](Oc6ccc(C#N)c(Cl)c6)C5(C)C)cn3)CCO4)cc2)c(-c2cn(C)c(=O)c3[nH]ccc23)c1 [Compound I-262] | < 500 nM | < 500 nM |  |  | < 500 nM | < 500 nM
CCS(=O)(=O)Cc1ccc(Oc2cccc(CCCCC3CCN(c4ncc(C(=O)N[C@H]5C(C)(C)[C@H](Oc6ccc(C#N)c(Cl)c6)C5(C)C)cn4)CC3)c2)c(-c2cn(C)c(=O)c3[nH]ccc23)c1 [Compound I-263] |  |  | < 500 nM | < 500 nM | < 500 nM | > 3000 nM
Cn1cc(-c2cc(C(C)(C)O)ccc2OC2CCC(N3CC(OC4CCN(c5ncc(C(=O)NC6C(C)(C)C(Oc7ccc(C#N)c(Cl)c7)C6(C)C)cn5)CC4)C3)C2)c2cc[nH]c2c1=O (centres unmarked) [Compound I-266, N-[3-(3-chloro-4-cyano-phenoxy)-2,2,4,4-tetramethyl-cyclobutyl]-2-[4-[1-[3-[4-(1-hydroxy-1-methyl-ethyl)-2-(6-methyl-7-oxo-1H-pyrrolo[2,3-c]pyridin-4-yl)phenoxy]cyclopentyl]azetidin-3-yl]oxy-1-piperidyl]pyrimidine-5-carboxamide] |  |  | 500 to 1500 nM | < 500 nM | < 500 nM | 1500 to 3000 nM
Cn1cc(-c2cc(C(C)(C)O)ccc2OCC2(C(=O)N3CC(OC4CCN(c5ncc(C(=O)N[C@H]6C(C)(C)[C@H](Oc7ccc(C#N)c(Cl)c7)C6(C)C)cn5)CC4)C3)CC2)c2cc[nH]c2c1=O [Compound I-267] | 500 to 1500 nM | < 500 nM |  |  | < 500 nM | 500 to 1500 nM

Second part, led by results:

GI50 [2] | GI50 [3] | GI50 ([2]; Homo sapiens) | GI50 ([3]; Homo sapiens) | Structure (SMILES) | GI50 [1] | GI50 [4]
500 to 1500 nM | < 500 nM |  |  | Cn1cc(-c2cc(C(C)(C)O)ccc2Oc2cccc(OCCC3CC4(C3)CN(c3ncc(C(=O)N[C@H]5C(C)(C)[C@H](Oc6ccc(C#N)c(Cl)c6)C5(C)C)cn3)C4)c2F)c2cc[nH]c2c1=O [Compound I-210] | < 500 nM | < 500 nM
< 500 nM | < 500 nM |  |  | CN(C1CCN(c2ncc(C(=O)N[C@H]3C(C)(C)[C@H](Oc4ccc(C#N)c(Cl)c4)C3(C)C)cn2)CC1)C1CN(c2cccc(Oc3ccc(C(C)(C)O)cc3-c3cn(C)c(=O)c4[nH]ccc34)c2F)C1 [Compound I-230] | < 500 nM | 500 to 1500 nM
< 500 nM | < 500 nM |  |  | Cn1cc(-c2cc(C(C)(C)O)ccc2Oc2ccc(F)c(OCCN3CC4(C3)CN(c3ncc(C(=O)N[C@H]5C(C)(C)[C@H](Oc6ccc(C#N)c(Cl)c6)C5(C)C)cn3)C4)c2F)c2cc[nH]c2c1=O [Compound I-239] | < 500 nM | < 500 nM
< 500 nM | 500 to 1500 nM |  |  | Cn1cc(-c2cc(C(C)(C)O)ccc2Oc2cccc(N3CC(N(C4CC4)C4CCN(c5ncc(C(=O)N[C@H]6C(C)(C)[C@H](Oc7ccc(C#N)c(Cl)c7)C6(C)C)cn5)CC4)C3)c2F)c2cc[nH]c2c1=O [Compound I-240] | < 500 nM | > 3000 nM
< 500 nM | < 500 nM |  |  | Cn1cc(-c2cc(C(C)(C)O)ccc2Oc2cccc(N3CC(CN4CC5CC4CN5c4ncc(C(=O)N[C@H]5C(C)(C)[C@H](Oc6ccc(C#N)c(Cl)c6)C5(C)C)cn4)C3)c2F)c2cc[nH]c2c1=O (some centres unmarked) [Compound I-241] | < 500 nM | < 500 nM
500 to 1500 nM | < 500 nM |  |  | Cn1cc(-c2cc(C(C)(C)O)ccc2OC(CCCOC2CCN(c3ncc(C(=O)N[C@H]4C(C)(C)[C@H](Oc5ccc(C#N)c(Cl)c5)C4(C)C)cn3)CC2)C2CC2)c2cc[nH]c2c1=O (some centres unmarked) [Compound I-244] | < 500 nM | 500 to 1500 nM
500 to 1500 nM | < 500 nM |  |  | Cn1cc(-c2cc(C(C)(C)O)ccc2Oc2ccc(C3(NC4CCN(c5ncc(C(=O)N[C@H]6C(C)(C)[C@H](Oc7ccc(C#N)c(Cl)c7)C6(C)C)cn5)CC4)COC3)cc2)c2cc[nH]c2c1=O [Compound I-246] | < 500 nM | < 500 nM
< 500 nM | 500 to 1500 nM |  |  | Cn1cc(-c2cc(S(C)(=O)=O)ccc2Oc2cccc(CCCC3CCN(c4ncc(C(=O)N[C@H]5C(C)(C)[C@H](Oc6ccc(C#N)c(Cl)c6)C5(C)C)cn4)CC3)c2F)c2cc[nH]c2c1=O [Compound I-250] | < 500 nM | > 3000 nM
 |  | < 500 nM | < 500 nM | CCS(=O)(=O)Cc1ccc(Oc2cccc(OCCCC3CCN(c4ncc(C(=O)N[C@H]5C(C)(C)[C@H](Oc6ccc(C#N)c(Cl)c6)C5(C)C)cn4)CC3)c2)c(-c2cn(C)c(=O)c3[nH]ccc23)c1 [Compound I-257] | < 500 nM | < 500 nM
< 500 nM | < 500 nM |  |  | Cn1cc(-c2cc(C(C)(C)O)ccc2Oc2ccc(CCN3CC4(C3)CN(c3ncc(C(=O)N[C@H]5C(C)(C)[C@H](Oc6ccc(C#N)c(Cl)c6)C5(C)C)cn3)C4)cc2)c2cc[nH]c2c1=O [Compound I-259] | < 500 nM | 500 to 1500 nM
 |  | < 500 nM | < 500 nM | CCS(=O)(=O)c1ccc(Oc2cccc(CCN3CC4(C3)CN(c3ncc(C(=O)N[C@H]5C(C)(C)[C@H](Oc6ccc(C#N)c(Cl)c6)C5(C)C)cn3)CCO4)c2F)c(-c2cn(C)c(=O)c3[nH]ccc23)c1 [Compound I-264] | < 500 nM | < 500 nM
1500 to 3000 nM | 500 to 1500 nM |  |  | Cn1cc(-c2cc(C(C)(C)O)ccc2OCC(CCOC2CCN(c3ncc(C(=O)N[C@H]4C(C)(C)[C@H](Oc5ccc(C#N)c(Cl)c5)C4(C)C)cn3)CC2)C2CC2)c2cc[nH]c2c1=O (some centres unmarked) [Compound I-265] | < 500 nM | 500 to 1500 nM
